Earlier results, collected in PMC4101043 (Antiviral research, 2014).
Where two headings read alike, the source gives them in different places. Blank lines part the entries; values can stand above or below the molecule they belong to.

Columns and labels:
[1] = test system: Wild-Type HIV-1 NL4-3; settings: MT-4 cells
[2] = test system: UGTs; settings: stated as known, no reference given
[3] = dosage and study duration differ
[4] = CPE inhibition, ref Okello et al., 2013a

EC50 [1, 4]: 0.82 nM
Compound: COc1cc2c(cc1Cc1cccc(Cl)c1F)c(=O)c(C(=O)O)cn2[C@H](CO)C(C)C [elvitegravir]
UGT substrate status / dependence on UGTs for clearance [2]: substrates and depend on UGTs for clearance

Compound: Cc1nnc(C(=O)NC(C)(C)c2nc(C(=O)NCc3ccc(F)cc3)c(O)c(=O)n2C)o1 [raltegravir]
EC50 [1, 4]: 6.54 nM | t1/2 (rats, po doses of 40–120 mg/kg, ref Merck, 2007): ≤ 1.6 h | Cl rate (rats, ref Laufer et al., 2009): 38.3 mL/min/kg | Oral bioavailability (F) (ref Merck, 2007): 32% | UGT substrate status / dependence on UGTs for clearance [2]: substrates and depend on UGTs for clearance | NOAEL ([3]; ref Merck, 2007): 120 mg/kg/day

Compound: C[C@@H]1CCO[C@H]2Cn3cc(C(=O)NCc4ccc(F)cc4F)c(=O)c(O)c3C(=O)N12 [dolutegravir]
EC50 ([1]; ref Kobayashi et al., 2011): 0.71 nM | UGT substrate status / dependence on UGTs for clearance [2]: substrates and depend on UGTs for clearance | NOAEL ([3]; adult rats, ref Rhodes et al., 2012): 50 mg/kg/day
